# Values of other authors, collected in US20120294937A1, “NEW PHARMACEUTICAL DOSAGE FORM FOR THE TREATMENT OF GASTRIC ACID-RELATED DISORDERS” (NOVARTIS AG, priority 2009, published 2012).
# Test system: stomach acid pH
smiles,measurement,setting,value
NC(N)=Nc1nc(CSCCC(N)=NS(N)(=O)=O)cs1 [famotidine],time stomach acid controlled at pH>4,"Day 1, clinical setting",54 % of the day
same,percentage of time controlling stomach acid,"Day 8, steady state for omeprazole reached, clinical setting",48 % of the day
